Measurements taken from US11498899B2, “Nitrone herbicides” (FMC Corporation, priority 2016, dated 2022).

Experiments:
[1] = system: barnyardgrass (Echinochloa crus-galli); assay: Test A preemergence, visual injury rating 0-100 (0 no effect, 100 complete control); type: in vivo; conditions: for Barnyardgrass plant response rating (0 to 100 scale): 125 g ai/ha; for Barnyardgrass plant response rating: 500 g ai/ha, 0 to 100 scale
[2] = system: ryegrass, Italian (Italian ryegrass, Lolium multiflorum); assay: Test A postemergence, visual injury rating 0-100; type: in vivo; conditions: 0 to 100 scale
corn (Zea mays) = assay: Test A postemergence, visual injury rating 0-100; type: in vivo; conditions: 0 to 100 scale
kochia (Kochia scoparia) [3] = assay: Test A postemergence, visual injury rating 0-100; type: in vivo; conditions: 0 to 100 scale
[4] = system: foxtail, green (green foxtail, Setaria viridis); assay: Test A postemergence, visual injury rating 0-100; type: in vivo; conditions: 0 to 100 scale
[5] = system: blackgrass (Alopecurus myosuroides); assay: Test A postemergence, visual injury rating 0-100; type: in vivo; conditions: 0 to 100 scale
[6] = system: pigweed (Amaranthus retroflexus); assay: Test A postemergence, visual injury rating 0-100; type: in vivo; conditions: 0 to 100 scale
[7] = system: wheat (Triticum aestivum); assay: Test A postemergence, visual injury rating 0-100; type: in vivo; conditions: 0 to 100 scale
[8] = system: ragweed (common ragweed, Ambrosia elatior); assay: Test A postemergence, visual injury rating 0-100; type: in vivo; conditions: 0 to 100 scale
[9] = system: barnyardgrass (Echinochloa crus-galli); assay: Test A postemergence, visual injury rating 0-100; type: in vivo; conditions: 0 to 100 scale
[10] = system: ducksalad (Heteranthera limosa); assay: Test B flooded paddy test, visual rating 0-100; conditions: Flood, 250 g ai/ha, applied to paddy water, rated after 13 to 15 days
[11] = system: ryegrass, Italian (Italian ryegrass, Lolium multiflorum); assay: Test A preemergence, visual injury rating 0-100; type: in vivo
kochia (Kochia scoparia) [12] = assay: Test A preemergence, visual injury rating 0-100; type: in vivo
[13] = system: foxtail, green (green foxtail, Setaria viridis); assay: Test A preemergence, visual injury rating 0-100; type: in vivo
[14] = system: pigweed (Amaranthus retroflexus); assay: Test A preemergence, visual injury rating 0-100; type: in vivo
[15] = system: ragweed (common ragweed, Ambrosia elatior); assay: Test A preemergence, visual injury rating 0-100; type: in vivo
[16] = system: barnyardgrass (Echinochloa crus-galli); assay: Test B flooded paddy test, visual rating 0-100; conditions: Flood, 250 g ai/ha, applied to paddy water, rated after 13 to 15 days
rice (Oryza sativa) = assay: Test B flooded paddy test, visual rating 0-100 (0 no effect, 100 complete control); conditions: Flood, 250 g ai/ha, applied to paddy water, rated after 13 to 15 days

| Compound | Barnyardgrass plant response rating (0 to 100 scale) [1] | Barnyardgrass plant response rating [1] | Ryegrass, Italian plant response rating ([2]; 500 g ai/ha) | Corn plant response rating (corn (Zea mays); 125 g ai/ha) | Corn plant response rating (corn (Zea mays); 500 g ai/ha) | Kochia plant response rating (kochia (Kochia scoparia) [3]; 125 g ai/ha) | Kochia plant response rating (kochia (Kochia scoparia) [3]; 500 g ai/ha) | Foxtail, Green plant response rating ([4]; 125 g ai/ha) | Foxtail, Green plant response rating ([4]; 500 g ai/ha) | Blackgrass plant response rating ([5]; 125 g ai/ha) | Blackgrass plant response rating ([5]; 500 g ai/ha) | Pigweed plant response rating ([6]; 125 g ai/ha) | Pigweed plant response rating ([6]; 500 g ai/ha) | Wheat plant response rating ([7]; 125 g ai/ha) | Wheat plant response rating ([7]; 500 g ai/ha) | Ragweed plant response rating ([8]; 125 g ai/ha) | Ragweed plant response rating ([8]; 500 g ai/ha) | Barnyardgrass plant response rating ([9]; 125 g ai/ha) | Barnyardgrass plant response rating ([9]; 500 g ai/ha) | Ducksalad plant response rating (0 to 100 scale) [10] | also measured |
| --- | --- | --- | --- | --- | --- | --- | --- | --- | --- | --- | --- | --- | --- | --- | --- | --- | --- | --- | --- | --- | --- |
| CC1=[N+]([O-])C(C(=O)Nc2cccc(F)c2Cl)C(c2ccc(C(F)(F)F)cc2)C1 (racemic) [Compound 31] | 50 | 100 | 20 | 0 | 10 | 0 | 10 | 40 | 90 | 20 | 80 | 0 | 30 | 0 | 40 | 0 | 20 | 30 | 90 | 0 | Ryegrass, Italian plant response rating ([2]; 125 g ai/ha): 20; Ryegrass, Italian plant response rating (0 to 100 scale) ([11]; 125 g ai/ha): 0; Ryegrass, Italian plant response rating (0 to 100 scale) ([11]; 500 g ai/ha): 20; Kochia plant response rating (0 to 100 scale) (kochia (Kochia scoparia) [12]; 125 g ai/ha): 0; Kochia plant response rating (0 to 100 scale) (kochia (Kochia scoparia) [12]; 500 g ai/ha): 80; Foxtail, Green plant response rating (0 to 100 scale) ([13]; 125 g ai/ha): 90; Foxtail, Green plant response rating (0 to 100 scale) ([13]; 500 g ai/ha): 100; Pigweed plant response rating (0 to 100 scale) ([14]; 125 g ai/ha): 0; Pigweed plant response rating (0 to 100 scale) ([14]; 500 g ai/ha): 60; Ragweed plant response rating (0 to 100 scale) ([15]; 125 g ai/ha): 0; Ragweed plant response rating (0 to 100 scale) ([15]; 500 g ai/ha): 90; Barnyardgrass plant response rating (0 to 100 scale) [16]: 0; Rice plant response rating (0 to 100 scale) (rice (Oryza sativa)): 0 |
| CC1=[N+]([O-])C(C(=O)Nc2cccc(F)c2C#N)C(c2ccc(C(F)(F)F)cc2)C1 (racemic) [Compound 34] | 80 | 100 | 30 | 0 | 0 | 0 | 30 | 0 | 80 | 40 | 80 | 30 | 70 | 0 | 50 | 0 | 50 | 30 | 70 | 50 | Ryegrass, Italian plant response rating ([2]; 125 g ai/ha): 0; Ryegrass, Italian plant response rating (0 to 100 scale) ([11]; 125 g ai/ha): 0; Ryegrass, Italian plant response rating (0 to 100 scale) ([11]; 500 g ai/ha): 0; Kochia plant response rating (0 to 100 scale) (kochia (Kochia scoparia) [12]; 125 g ai/ha): 0; Kochia plant response rating (0 to 100 scale) (kochia (Kochia scoparia) [12]; 500 g ai/ha): 90; Foxtail, Green plant response rating (0 to 100 scale) ([13]; 125 g ai/ha): 40; Foxtail, Green plant response rating (0 to 100 scale) ([13]; 500 g ai/ha): 100; Pigweed plant response rating (0 to 100 scale) ([14]; 125 g ai/ha): 0; Pigweed plant response rating (0 to 100 scale) ([14]; 500 g ai/ha): 90; Ragweed plant response rating (0 to 100 scale) ([15]; 125 g ai/ha): 50; Ragweed plant response rating (0 to 100 scale) ([15]; 500 g ai/ha): 100; Barnyardgrass plant response rating (0 to 100 scale) [16]: 35; Rice plant response rating (0 to 100 scale) (rice (Oryza sativa)): 0 |
| O=C(Nc1cccc(F)c1F)C1C(c2ccccc2)CC(C(F)(F)F)=[N+]1[O-] (racemic) [Compound 35] | 0 | 0 | 0 | 0 | 0 | 0 | 0 | 0 | 0 | 0 | 0 | 0 | 0 | 0 | 0 | 0 | 0 | 0 | 0 | 0 | Ryegrass, Italian plant response rating ([2]; 125 g ai/ha): 0; Ryegrass, Italian plant response rating (0 to 100 scale) ([11]; 125 g ai/ha): 0; Ryegrass, Italian plant response rating (0 to 100 scale) ([11]; 500 g ai/ha): 0; Kochia plant response rating (0 to 100 scale) (kochia (Kochia scoparia) [12]; 125 g ai/ha): 0; Kochia plant response rating (0 to 100 scale) (kochia (Kochia scoparia) [12]; 500 g ai/ha): 0; Foxtail, Green plant response rating (0 to 100 scale) ([13]; 125 g ai/ha): 0; Foxtail, Green plant response rating (0 to 100 scale) ([13]; 500 g ai/ha): 0; Pigweed plant response rating (0 to 100 scale) ([14]; 125 g ai/ha): 0; Pigweed plant response rating (0 to 100 scale) ([14]; 500 g ai/ha): 0; Ragweed plant response rating (0 to 100 scale) ([15]; 125 g ai/ha): 0; Ragweed plant response rating (0 to 100 scale) ([15]; 500 g ai/ha): 0; Barnyardgrass plant response rating (0 to 100 scale) [16]: 0; Rice plant response rating (0 to 100 scale) (rice (Oryza sativa)): 0 |
| CC1=[N+]([O-])C(C(=O)Nc2ccncc2C(F)(F)F)C(c2ccc(C(F)(F)F)cc2)C1 (racemic) [Compound 36] | 70 | 60 | 20 | 20 | 0 | 0 | 0 | 0 | 20 | 20 | 20 | 0 | 0 | 0 | 0 | 0 | 0 | 0 | 0 | 0 | Ryegrass, Italian plant response rating (0 to 100 scale) ([11]; 125 g ai/ha): 10; Ryegrass, Italian plant response rating (0 to 100 scale) ([11]; 500 g ai/ha): 60; Kochia plant response rating (0 to 100 scale) (kochia (Kochia scoparia) [12]; 125 g ai/ha): 0; Kochia plant response rating (0 to 100 scale) (kochia (Kochia scoparia) [12]; 500 g ai/ha): 90; Foxtail, Green plant response rating (0 to 100 scale) ([13]; 125 g ai/ha): 0; Foxtail, Green plant response rating (0 to 100 scale) ([13]; 500 g ai/ha): 100; Pigweed plant response rating (0 to 100 scale) ([14]; 125 g ai/ha): 0; Pigweed plant response rating (0 to 100 scale) ([14]; 500 g ai/ha): 60; Ragweed plant response rating (0 to 100 scale) ([15]; 125 g ai/ha): 0; Ragweed plant response rating (0 to 100 scale) ([15]; 500 g ai/ha): 80; Barnyardgrass plant response rating (0 to 100 scale) [16]: 30; Rice plant response rating (0 to 100 scale) (rice (Oryza sativa)): 0 |
| CC1=[N+]([O-])C(C(=O)Nc2ccc(F)c(F)c2F)C(c2ccc(C(F)(F)F)cc2)C1 (racemic) [Compound 38] | 90 | 100 | 20 | 20 | 70 | 0 | 0 | 70 | 90 | 40 | 70 | 0 | 30 | 30 | 60 | 0 | 20 | 90 | 60 | 65 | Ryegrass, Italian plant response rating ([2]; 125 g ai/ha): 30; Ryegrass, Italian plant response rating (0 to 100 scale) ([11]; 125 g ai/ha): 30; Ryegrass, Italian plant response rating (0 to 100 scale) ([11]; 500 g ai/ha): 50; Kochia plant response rating (0 to 100 scale) (kochia (Kochia scoparia) [12]; 125 g ai/ha): 0; Kochia plant response rating (0 to 100 scale) (kochia (Kochia scoparia) [12]; 500 g ai/ha): 90; Foxtail, Green plant response rating (0 to 100 scale) ([13]; 125 g ai/ha): 100; Foxtail, Green plant response rating (0 to 100 scale) ([13]; 500 g ai/ha): 100; Pigweed plant response rating (0 to 100 scale) ([14]; 125 g ai/ha): 30; Pigweed plant response rating (0 to 100 scale) ([14]; 500 g ai/ha): 80; Ragweed plant response rating (0 to 100 scale) ([15]; 125 g ai/ha): 30; Ragweed plant response rating (0 to 100 scale) ([15]; 500 g ai/ha): 90; Barnyardgrass plant response rating (0 to 100 scale) [16]: 60; Rice plant response rating (0 to 100 scale) (rice (Oryza sativa)): 0 |
| CC1=[N+]([O-])C(C(=O)Nc2ccccc2S(C)(=O)=O)C(c2ccc(C(F)(F)F)cc2)C1 (racemic) [Compound 43] | 20 | 100 | 20 | 0 | 0 | 0 | 0 | 20 | 60 | 0 | 30 | 0 | 0 | 0 | 0 | 0 | 0 | 20 | 60 | 0 | Ryegrass, Italian plant response rating ([2]; 125 g ai/ha): 0; Ryegrass, Italian plant response rating (0 to 100 scale) ([11]; 125 g ai/ha): 0; Ryegrass, Italian plant response rating (0 to 100 scale) ([11]; 500 g ai/ha): 0; Kochia plant response rating (0 to 100 scale) (kochia (Kochia scoparia) [12]; 125 g ai/ha): 0; Kochia plant response rating (0 to 100 scale) (kochia (Kochia scoparia) [12]; 500 g ai/ha): 80; Foxtail, Green plant response rating (0 to 100 scale) ([13]; 125 g ai/ha): 80; Foxtail, Green plant response rating (0 to 100 scale) ([13]; 500 g ai/ha): 100; Pigweed plant response rating (0 to 100 scale) ([14]; 125 g ai/ha): 40; Pigweed plant response rating (0 to 100 scale) ([14]; 500 g ai/ha): 90; Ragweed plant response rating (0 to 100 scale) ([15]; 125 g ai/ha): 0; Ragweed plant response rating (0 to 100 scale) ([15]; 500 g ai/ha): 100; Barnyardgrass plant response rating (0 to 100 scale) [16]: 0; Rice plant response rating (0 to 100 scale) (rice (Oryza sativa)): 0 |
